Measured values taken from ChEMBL document CHEMBL5532736, “Novel Approaches for Upregulation of Tumor Suppressor Proteins: Pioneering Strategies and Integrative Potentials” (ACS Med Chem Lett, 2024).

Columns and labels:
[1] = Cytotoxicity against human EU-1 cells assessed as inhibition of cell viability incubated for 24 to 72 hrs by CCK8 assay; format: functional, cell-based
[2] = target: E3 ubiquitin-protein ligase Mdm2 (Homo sapiens) (UniProt Q00987); experiment: Induction of MDM2 degradation in human EU-1 cells incubated for 6 hrs by Western blot analysis; format: cell-based; conditions: dose <= 2.0 µM
Sequence of E3 ubiquitin-protein ligase Mdm2 (Homo sapiens) (Q00987 whole entry, looked up): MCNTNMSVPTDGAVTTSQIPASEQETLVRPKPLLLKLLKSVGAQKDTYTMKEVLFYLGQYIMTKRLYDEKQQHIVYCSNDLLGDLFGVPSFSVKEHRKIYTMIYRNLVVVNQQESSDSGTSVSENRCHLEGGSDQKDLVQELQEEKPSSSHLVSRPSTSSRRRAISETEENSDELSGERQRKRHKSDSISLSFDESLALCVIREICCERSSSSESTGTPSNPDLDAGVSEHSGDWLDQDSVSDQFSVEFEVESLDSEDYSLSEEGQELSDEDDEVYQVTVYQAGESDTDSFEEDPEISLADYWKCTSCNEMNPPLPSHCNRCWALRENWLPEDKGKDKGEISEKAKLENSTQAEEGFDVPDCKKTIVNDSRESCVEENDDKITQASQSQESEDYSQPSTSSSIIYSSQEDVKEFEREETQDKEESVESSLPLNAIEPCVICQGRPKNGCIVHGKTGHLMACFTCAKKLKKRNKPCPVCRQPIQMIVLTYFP

[3] = target: E3 ubiquitin-protein ligase Mdm2 (Homo sapiens) (UniProt Q00987); experiment: Induction of MDM2 degradation in human EU-1 cells at 0.8 uM by Western blot analysis; format: cell-based; conditions: time <= 24.0 hrs, TDE = time-dependent effect
[4] = target: E3 ubiquitin-protein ligase Mdm2 (Homo sapiens) (UniProt Q00987); experiment: Induction of MDM2 degradation in human EU-1 cells assessed as increase in p53 level incubated for 6 hrs by Western blot analysis; format: cell-based; conditions: dose <= 2.0 µM
[5] = target: E3 ubiquitin-protein ligase Mdm2 (Homo sapiens) (UniProt Q00987); experiment: Induction of MDM2 degradation in human EU-1 cells assessed as increase in p53 level at 0.8 uM by Western blot analysis; format: cell-based; conditions: time <= 24.0 hrs, TDE = time-dependent effect

| Structure (SMILES) | IC50 [1] [nM] | further results |
| --- | --- | --- |
| CC(=O)CCCOc1cccc2c1C(=O)c1c(OCCCC(C)=O)cc(NC(=O)CCl)cc1C2=O | 430 | Activity [2]: Dose-Dependent Effect; Activity [3]: Tde; Activity [4]: Dose-Dependent Effect; Activity [5]: Tde |
| C=CS(=O)(=O)Nc1cc(OCCCC(C)=O)c2c(c1)C(=O)c1cccc(OCCCC(C)=O)c1C2=O | 3450 | – |
| CC(=O)CCCCOc1cccc2c1C(=O)c1c(OCCCCC(C)=O)cc(NC(=O)CCl)cc1C2=O | 790 | – |
| CC(=O)CCOc1cccc2c1C(=O)c1c(OCCC(C)=O)cc(NC(=O)CCl)cc1C2=O | 450 | – |
| CC(=O)CCCOc1cc(NC(=O)CCl)cc2c1C(=O)c1c(O)cccc1C2=O | 840 | – |
| O=C(CCl)Nc1cc(OCCO)c2c(c1)C(=O)c1cccc(OCCO)c1C2=O | 740 | – |
| CC(=O)CCCOc1cccc2c1C(=O)c1c(OCCCC(C)=O)cc(NC(C)=O)cc1C2=O | > 100000 | – |
| C=CC(=O)Nc1cc(OCCCC(C)=O)c2c(c1)C(=O)c1cccc(OCCCC(C)=O)c1C2=O | 6210 | – |
| C#CC(=O)Nc1cc(OCCCC(C)=O)c2c(c1)C(=O)c1cccc(OCCCC(C)=O)c1C2=O | 190 | – |
